The results in this text go back to PubChem BioAssay AID2060620 (Molecular Pharmacology Branch, DTP, NCI, 2025).

The test has as its system 328373-195-R-J1-PDC complex spheroids, viability % test/control. As to the kind of experiment: Anticancer human tumor 328373-195-R-J1-PDC patient-derived head and neck squamous carcinoma cell line growth inhibition [CLK]. The settings on record: for viability, T/C: stronger effect = lower value. The text has this:
A high-throughput screen of multi-cell type tumor spheroids was designed to identify active combinations of […] and targeted small molecules. Complex spheroids include a stromal component modeled by human endothelial cells (HUVEC) and fibroblasts modeled by human mesenchymal stem cells (MSCs). The concentration ranges selected for each drug and investigational agent were based upon clinically achievable concentrations if the clinical Cmax of the agent was known.
Compounds. The drugs and investigational agents: cirtuvivint (SM08502; NSC835563), CC-671 (NSC850746), vemurafenib (NSC761431), tapotoclax (NSC804041), sotorasib (NSC818433), adagrasib (NSC831453), MRTX-1133 (NSC836407), BAY2416964 (NSC825713), copanlisib (NSC816437), inavolisib (NSC800729), abemaciclib (NSC768073), osimertinib (NSC779217), entinostat (NSC756642), eltanexor (KPT-8602, NSC794443), venetoclax (NSC766270), ceralasertib (NSC777638), bortezomib (NSC756655), olaparib (NSC753686), talazoparib (NSC767125), alisertib (NSC759677), peposertib (NSC802822), gemcitabine (NSC613327), 5-fluorouracil (NSC19893), SN-38 (NSC673596), oxaliplatin (NSC266046), paclitaxel (NSC125973), and doxorubicin (NSC123127), were obtained from the National Cancer Institute (NCI) Developmental Therapeutics Program Chemical Repository. The FDA-approved anticancer drug set is available from the Developmental Therapeutics Program at https://dtp.cancer.gov/organization/dscb/obtaining/available plates.htm. […] The stock solutions were prepared in dimethyl sulfoxide (DMSO, Sigma-Aldrich, St. Louis, MO, cat. D2650), except for the platinum complexes which were prepared in saline (Quality Biological, Gaithersburg, MD, cat. 114-055-101), at 800-fold the tested concentration and stored at -70 degrees C prior to their use. All drugs and investigational agents were tested over a range starting from a high concentration at or near the clinical Cmax and decreasing in half-log increments. If the clinical Cmax for an agent had not been determined, the highest concentration tested was 10 microM.
Cell Culture. All cells were maintained in an incubator at 37 degrees C and 5% CO2 with 95% humidity. The PDC lines were cultured according to standard operating procedures established by the NCI PDMR. Briefly, all PDCs were thawed and cultured in Matrigel-coated flasks prepared with a working solution of 1X Ham's F-12 nutrient mix, without supplementation (Invitrogen, Waltham, MA, cat. 11765054), 100 U/mL penicillin-streptomycin (Invitrogen, cat. 15140122), and 2.5% Matrigel (Corning Inc., Corning, NY, cat. 354248) for the first three passages. The 947758-054-R-J2-PDC line was cultured in 6B/Colon 1A media, which includes advanced DMEM/F-12 (Thermo Fisher Scientific, cat. 12634028), 10 mM HEPES (Thermo Fisher Scientific, cat. 15630080), 1X GlutaMAX supplement (Thermo Fisher Scientific, cat. 35050061), 0.1 mg/mL primocin (InvivoGen, cat. ant-pm-2), 10% defined fetal bovine serum, heat inactivated (HyClone Laboratories Inc., cat. SH30070.03HI), 1.25 mM N-Acetyl-L-cysteine (Sigma-Aldrich, cat. A9165), 10 mM nicotinamide (Sigma-Aldrich, cat. N0636), 1X B-27 supplement (Thermo Fisher Scientific, cat. 17504044), 1X N-2 supplement (Thermo Fisher Scientific, cat. 17502048), and 10 microM Y-27632 dihydrochloride (Tocris Bioscience, cat. 1254). The 876862-298-R-J1-PDC was cultured in 6E media, which includes all 6B/Colon 1A media components plus 50% L-WRN conditioned media (ATCC, cat. CRL-3276), 50 ng/mL recombinant human EGF recombinant protein (hEGF; Thermo Fisher Scientific, cat. PHG0311), 10 ng/mL recombinant human fibroblast growth factor 10 (hGFG-10; PeproTech, cat. 100-26), 1 ng/mL recombinant human fibroblast growth factor 2 (hFGF-2; PeproTech, cat. 100-18B), and 1 µM prostaglandin E2 (PGE2; Tocris, cat. 2296). The 227483-062-R1-J1-PDC line was cultured in Panc media, containing all 6E components except hFGF-2, with the addition of 500 nM SB-431542 (Selleckchem, cat. S1067) and 10 nM gastrin (Tocris, cat. 3006). […]

Several values for one entry are separate records, joined by “and”; a condition that tells them apart may be missing. Equal values may be shown once. Some results are limits rather than exact numbers.
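Note: spheroids exposed to the agents for 7 days.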

As to `CC(=O)O[C@H]1C(=O)[C@@]2(C)[C@H]([C@H](OC(=O)c3ccccc3)[C@]3(O)C[C@H](OC(=O)[C@H](O)[C@@H](NC(=O)c4ccccc4)c4ccccc4)C(C)=C1C3(C)C)[C@]1(OC(C)=O)CO[C@@H]1C[C@@H]2O`, the viability, T/C (in general, the ratio of treated to control) runs as follows: (compound 0.0316 µM) 10.2% and 4.45%; (compound 0.1 µM) 5.56% and 4.34%; (compound 0.316 µM) 5.87% and 5.98%; (compound 1 µM) 10.8% and 8.33%; (compound 3.16 µM) 14.6% and 9.57%; (compound 10 µM) 14.7% and 10.1%. Moreover, the IC50 (as a rule, the concentration needed to halve the response being measured) (curve of compound) was less than 31.6 nM.

On to `CC1COCCN1c1cc(C2(S(C)(=N)=O)CC2)nc(-c2ccnc3[nH]ccc23)n1` (stereo unspecified), for which the viability, T/C was 99.7% and 95.9% (compound 0.0316 µM); 91.5% and 81.3% (compound 0.1 µM); 88.8% and 91.9% (compound 0.316 µM); 70.2% and 70% (compound 1 µM); 29.4% and 27.2% (compound 3.16 µM); 9.11% and 6.62% (compound 10 µM). For the same compound, the IC50 (curve of compound) was 1760 nM and 1730 nM.

Regarding `CNC(=O)c1ccc(Nc2nc(OC3CCCC3)c3c(-c4ccc5nc(C)oc5c4)c[nH]c3n2)c(OC)c1`, the viability, T/C is 12.1% [middle of 12 runs] (compound 0.1 µM); 10.1% [middle of 11 runs] (compound 0.316 µM); 9.35% [middle of 12 runs] (compound 1 µM); 9.17% [middle of 12 runs] (compound 3.16 µM); 11.8% [middle of 12 runs] (compound 10 µM).

Regarding `COc1ccc([C@@H](O)c2cc(-c3ncnc4cc(N5CCOCC5)ccc34)c(F)cc2Cl)nn1`, the viability, T/C reads like this: (compound 0.0316 µM) 92.4% and 111%; (compound 0.1 µM) 91.4% and 93%; (compound 0.316 µM) 88% and 80%; (compound 1 µM) 86.8% and 84.3%; (compound 3.16 µM) 76% and 71.4%; (compound 10 µM) 48.9% and 47.2%. For the same compound, the IC50 (curve of compound) is 9710 nM and > 10000 nM.

On to `COc1cccc2c1C(=O)c1c(O)c3c(c(O)c1C2=O)CC(O)(C(=O)CO)CC3OC1CC(N)C(O)C(C)O1` (stereo unspecified), for which the viability, T/C by setting is: (compound 0.0316 µM) 14.6% and 11.2%; (compound 0.1 µM) 11.1% and 6.08%; (compound 0.316 µM) 1.12% and 2.35%; (compound 1 µM) 0.18% and 1.14%; (compound 3.16 µM) 2.47% and 0.1%; (compound 10 µM) 1.82% and 1.43%. In addition, the IC50 (curve of compound) was less than 31.6 nM.

As for `Nc1ccn(C2OC(CO)C(O)C2(F)F)c(=O)n1` (stereo unspecified), the viability, T/C by setting is: (compound 0.0316 µM) 4.83% and 1.9%; (compound 0.1 µM) 2.69% and 2.98%; (compound 0.316 µM) 2.89% and 2.37%; (compound 1 µM) 2.8% and 3.02%; (compound 3.16 µM) 2.26% and 2.69%; (compound 10 µM) 2.3% and 1.66%. The IC50 (curve of compound) is less than 31.6 nM.

On to `O=C(c1cc(Cc2n[nH]c(=O)c3ccccc23)ccc1F)N1CCN(C(=O)C2CC2)CC1`, for which the viability, T/C runs as follows: (compound 0.0316 µM) 99.6% and 98.6%; (compound 0.1 µM) 94.2% and 88%; (compound 0.316 µM) 91.3% and 90.8%; (compound 1 µM) 87.9% and 100%; (compound 3.16 µM) 93.2% and 101%; (compound 10 µM) 73.2% and 66.8%. For the same compound, for the setting “curve of compound”, the IC50 was more than 10000 nM.

Consider `O=c1[nH]cc(F)c(=O)[nH]1`, for which the viability, T/C was 54% and 64.5% (compound 0.0316 µM); 14.5% and 17.4% (compound 0.1 µM); 11.9% and 9.36% (compound 0.316 µM); 6.67% and 7.09% (compound 1 µM); 8.84% and 8.77% (compound 3.16 µM); 14.9% and 15.6% (compound 10 µM). In addition, the IC50 (curve of compound) is 35.6 nM and 44.9 nM.

Turning to `CCCS(=O)(=O)Nc1ccc(F)c(C(=O)c2c[nH]c3ncc(-c4ccc(Cl)cc4)cc23)c1F` + CN1CCN(c2cc(C(=O)Nc3cc4cc(-c5cnn(C)c5)ccc4cn3)ccn2)CC1, the IC50 (curve of first compound, second compound 0.0316 µM) was more than 10000 nM; the IC50 (curve of first compound, second compound 0.1 µM) is more than 10000 nM; the half-maximal inhibitory concentration (IC50) (curve of first compound, second compound 0.316 µM) is less than 31.6 nM; the IC50 (curve of first compound, second compound 1 µM) was less than 31.6 nM; the IC50 (curve of first compound, second compound 3.16 µM) was less than 31.6 nM; the IC50 (curve of first compound, second compound 10 µM) was less than 31.6 nM. Further, the viability, T/C runs as follows: (second compound 0.0316 µM, first compound 0.0316 µM) 102%; (second compound 0.0316 µM, first compound 0.1 µM) 91.4%; (second compound 0.0316 µM, first compound 0.316 µM) 109%; (second compound 0.0316 µM, first compound 1 µM) 100%; (second compound 0.0316 µM, first compound 3.16 µM) 101%; (second compound 0.0316 µM, first compound 10 µM) 81.6%. Besides, the viability, T/C is 78.8% (second compound 0.1 µM, first compound 0.0316 µM); 82.2% (second compound 0.1 µM, first compound 0.1 µM); 83.7% (second compound 0.1 µM, first compound 0.316 µM); 86.6% (second compound 0.1 µM, first compound 1 µM); 96.5% (second compound 0.1 µM, first compound 3.16 µM); 81.7% (second compound 0.1 µM, first compound 10 µM). The viability, T/C reads like this: (second compound 0.316 µM, first compound 0.0316 µM) 35.8%; (second compound 0.316 µM, first compound 0.1 µM) 38.5%; (second compound 0.316 µM, first compound 0.316 µM) 34.8%; (second compound 0.316 µM, first compound 1 µM) 40%; (second compound 0.316 µM, first compound 3.16 µM) 34.7%; (second compound 0.316 µM, first compound 10 µM) 28.9%. The viability, T/C is 2.19% (second compound 1 µM, first compound 0.0316 µM); 1.09% (second compound 1 µM, first compound 0.1 µM); 2.63% (second compound 1 µM, first compound 0.316 µM); 2.9% (second compound 1 µM, first compound 1 µM); 1.71% (second compound 1 µM, first compound 3.16 µM); 0.31% (second compound 1 µM, first compound 10 µM). The viability, T/C by setting is: (second compound 3.16 µM, first compound 0.0316 µM) 0.65%; (second compound 3.16 µM, first compound 0.1 µM) 1.41%; (second compound 3.16 µM, first compound 0.316 µM) 2.96%; (second compound 3.16 µM, first compound 1 µM) 1.01%; (second compound 3.16 µM, first compound 3.16 µM) 1.06%; (second compound 3.16 µM, first compound 10 µM) 0.14%. Further, the viability, T/C reads like this: (second compound 10 µM, first compound 0.0316 µM) 1.51%; (second compound 10 µM, first compound 0.1 µM) 3.41%; (second compound 10 µM, first compound 0.316 µM) 0.81%; (second compound 10 µM, first compound 1 µM) 2.54%; (second compound 10 µM, first compound 3.16 µM) 2.37%; (second compound 10 µM, first compound 10 µM) 0.63%.
